US11952368B2, “FAPI dimer compound, FAPI dimer-based positron emission tomography (PET) imaging agent for tumor diagnosis, and preparation method and use thereof” (XIAMEN UNIVERSITY, priority 2021, dated 2024)

Test system: lesions in the three cancer patients
Assay: PET/CT in tumor patients (NPC, thyroid cancer, HCC), SUVmax of lesions
Assay type: in vivo, human
Description: This experiment was approved by the Clinical Research Ethics Committee of the First Affiliated Hospital of Xiamen University, and all subjects signed a written informed consent form. Doses of ^68Ga-FAPI-46 and ^68Ga-2PEG(3)-FAPI-dimer for intravenous injection (1.8 MBq to 2.2 MBq [0.05 mCi to 0.06 mCi]/kg) were calculated according to a body weight of a patient. A cancer patient was administered with ^68Ga-2PEG(3)-FAPI-dimer and ^68Ga-FAPI-46 at an interval of 3 d. Data were acquired using a hybrid PET/CT scanner (Discovery MI, GE Healthcare, Milwaukee, WI, USA). A PET/CT image was acquired at 60 min after intravenous injection (a thyroid cancer patient was scanned twice at 60 min and 240 min after injection). A maximum standard uptake value (SUVmax) was automatically calculated with ROIs drawn on a transaxial image. PET/CT scanning was conducted at 60 min after the three patients were intravenously administered with ^68Ga-FAPI-46 and ^68Ga-2PEG(3)-FAPI-dimer, including a nasopharyngeal carcinoma (NPC) patient (non-keratinizing undifferentiated carcinoma, immunotherapy was conducted when the widespread bone metastasis occurred after chemoradiotherapy), a thyroid cancer patient (multiple cycles of radioactive iodine therapy were conducted after papillary thyroid carcinoma (PTC), total thyroidectomy, and lymph node dissection), and an HCC patient (untreated at preliminary diagnosis). The comparison of ^68Ga-FAPI-46 and ^68Ga-2PEG(3)-FAPI-dimer uptake among lesions in the three cancer patients was shown in Table 3.

[1] = Patient 1 (NPC), PET/CT 60 min after i.v. injection
[2] = Patient 2 (Thyroid cancer), PET/CT 60 min after i.v. injection

CN(CCCN1CCN(C(=O)COCCOCCOCCNC(=O)CCC(=O)N[C@@H](CCCCNC(=O)CN2CCN(CC(=O)[O-])CCN(CC(=O)[O-])CCN(CC(=O)[O-])CC2)C(=O)NCCOCCOCCOCC(=O)N2CCN(CCCN(C)c3ccc4nccc(C(=O)NCC(=O)N5CC(F)(F)C[C@H]5C#N)c4c3)CC2)CC1)c1ccc2nccc(C(=O)NCC(=O)N3CC(F)(F)C[C@H]3C#N)c2c1.[68Ga+3] [^68Ga-2PEG(3)-FAPI-dimer] was tested, and the “SUVmax, Bone metastasis 1” value [1] was 17.8, the “SUVmax, Bone metastasis 2” value [1] was 27.5 and the “SUVmax, Bone metastasis 3” value [1] was 27.4. The “SUVmax, Bone metastasis 4” value [1] was 25.1, the “SUVmax, Bone metastasis 5” value [1] was 29.8 and the “SUVmax, Bone metastasis 6” value [1] was 20.8. For the same compound, the “SUVmax, Bone metastasis 7” value [1] was 17.2, the “SUVmax, Bone metastasis 8” value [1] was 22.1 and the “SUVmax, Bone metastasis 10” value [1] was 23.3. For the same compound, the “SUVmax, Axillary lymph node 1” value [2] was 23.2, the “SUVmax, Axillary lymph node 2” value [2] was 33.2 and the “SUVmax, Axillary lymph node 3” value [2] was 28.9. The “SUVmax, Bone metastasis 1” value [2] was 26.4, the “SUVmax, Cervical lymph node 1” value [2] was 32.8 and the “SUVmax, Cervical lymph node 2” value [2] was 8.1. For the same compound, the “SUVmax, Hilar lymph node 1” value [2] was 18.1, the “SUVmax, Mediastinal lymph node 1” value [2] was 24.6 and the “SUVmax, Supraclavicular lymph node 1” value [2] was 39.0. The “SUVmax, Supraclavicular lymph node 2” value [2] was 24.1, the “SUVmax, Primary tumor” value (Patient 3 (HCC), tumor with low FAP expression, PET/CT 60 min after i.v. injection) was 9.8 and the “uptake compared with ^68Ga-FAPI-46 in the comparative analysis of single lesions” value (three cancer patients, Table 3) was “significantly higher”.
